Measured values: patent publication US10106523B2, “Amide compound” (ASTELLAS PHARMA INC., priority 2014, dated 2018)
pKi: −log10 of the molar value.

What was measured:
human EP4 receptor = molecular target: T1, human EP4 receptor (Homo sapiens, UniProt P35408); experiment: Evaluation test of human EP4 receptor affinity ([3H]PGE2 binding, membrane fraction); settings: 2.9 nmol/L [3H]PGE2, human EP4 cell membrane fraction, 25° C. 60 minutes; read-out: Ki value with respect to the human EP4 receptor
T1 construct: purchased Chemicon
Experimental: Test Example 2: Evaluation Test of Human EP4 Receptor Affinity
[^3H]PGE2 and a human EP4 cell membrane fraction (Chemicon) were diluted with an assay buffer (50 mmol/L HEPES-NaOH, 5 mmol/L MgCl2, 1 mmol/L CaCl2 (pH 7.4), 0.5% bovine serum albumin (BSA)), and the test compound and unlabeled PGE2 (Sigma) were diluted with DMSO and the assay buffer. The composition of the reaction liquid (250 μL) was set to be as follows: 175 μL of an assay buffer containing [^3H]PGE2 (final concentration of 2.9 nmol/L), 50 μL of a membrane fraction (Chemicon, 40 μg protein/mL), and 25 μL of a test compound (final concentrations of 0.1, 1, 10, 100, and 1000 nmol/L). For the measurement of the non-specific binding, the unlabeled PGE2 was added to a final concentration of 10 μmol/L. The final concentration of DMSO was set to 1%. The reaction liquid was incubated at 25° C. for 60 minutes. The reaction liquid was filtered with a GF/C filter paper (Whatman), using a cell harvester (Brandel). The filter paper after filtration was washed three times with 1 mL of a solution containing 50 mmol/L HEPES-NaOH (pH 7.4), 500 mmol/L NaCl, and 0.1% BSA. […] The radioactive activity was measured using a liquid scintillation counter (Perkin Elmer). […] The specific binding amount was determined by subtracting the non-specific binding amount from the total binding amount. The Ki value was calculated according to a standard method.

[1] = system: 5/6 nephrectomy rats with chronic renal failure; experiment: Effect on renal function of 5/6 nephrectomy (5/6 Nx) rats with chronic renal failure; assay type: in vivo, rat; settings: 5/6 Nx Wistar rats, 0.2 mg/kg po once per day for 6 weeks
Experimental: Test Example 8: Test for Investigation of Effect on Renal Function of 5/6 Nephrectomy (5/6 Nx) of Rats with Chronic Renal Failure
Wistar rats (male, 8-Week-old) were used for the test. Two-thirds of the left kidney was removed under pentobarbital anesthesia, and after 1 week, the entire right kidney was nephrectomized (5/6 Nx). After 2 weeks from 5/6 Nx, the protein concentrations in urine samples obtained by urine collection for 24 hours were measured using a Bio-Rad Protein assay kit, and the creatinine concentration in urine was measured using Determiner L CRE (Kyowa Medex Co., Ltd.)). The urinary protein-creatinine ratio (UPCR) was calculated, and a group (n=12) not treated with the test compound and a group (n=12) treated with the test compound were allocated without a bias in UPCR. The test compound suspended in a 0.5% MC solution was orally administered to the group treated with the test compound at a dose of 0.2 mg/kg once per day for 6 weeks (5 mL/kg). […] Urine was collected for 24 hours from the completion of the final administration, and using the calculated UPCR as an indicator, the improvement effect of the test compound on the nephropathy of the rat with chronic renal failure was investigated. The inhibitory rate of UPCR of the group treated with the test compound when the UPCR value of the group not treated with the test compound was taken as 100% was determined.

T1 sequence (P35408 whole entry): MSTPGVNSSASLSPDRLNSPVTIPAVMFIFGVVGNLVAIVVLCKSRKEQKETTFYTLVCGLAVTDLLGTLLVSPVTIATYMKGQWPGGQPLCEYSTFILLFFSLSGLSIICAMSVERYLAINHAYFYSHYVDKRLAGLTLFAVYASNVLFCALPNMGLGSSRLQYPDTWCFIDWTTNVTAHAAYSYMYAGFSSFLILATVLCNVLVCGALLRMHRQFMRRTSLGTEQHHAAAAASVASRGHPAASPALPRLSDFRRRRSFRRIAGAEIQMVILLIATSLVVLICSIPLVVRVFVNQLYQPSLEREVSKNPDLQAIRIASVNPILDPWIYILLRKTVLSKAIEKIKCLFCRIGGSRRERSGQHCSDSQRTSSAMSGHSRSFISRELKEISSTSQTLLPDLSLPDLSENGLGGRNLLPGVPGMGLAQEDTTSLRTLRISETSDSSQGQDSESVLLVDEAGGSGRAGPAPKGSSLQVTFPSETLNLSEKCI

pKi (human EP4 receptor): 8.84
Structure (SMILES): Cc1nn(Cc2cc3ccccc3cn2)c(C(=O)N[C@@H](C)c2ccc(C(=O)O)cc2)c1Br [Compound A, 4-[(1S)-1-({[4-bromo-1-(isoquinolin-3-ylmethyl)-3-methyl-1H-pyrazol-5-yl]carbonyl}amino)ethyl]benzoic acid]
Inhibitory rate of UPCR (urinary protein-creatinine ratio) [1]: 47%
